# Measurements published in US10149809B2, “Skin aging inhibitor and concentrate of resveratrol 3-O-α-glucoside” (priority 2014, dated 2018).
# How the values were obtained:
# [1] = tested on: hyaluronidase (from bovine testes); assay: Hyaluronidase inhibitory effect; type: biochemical; settings: pH 4.0, 37° C., 40 minutes
# Procedure: The following sample solution, enzyme solution, and hyaluronic acid solution were prepared.
# Resveratrol 3-O-α-glucoside was dissolved in a 0.2 M acetate buffer solution (pH 4.0) to a concentration of 0.025 or 0.1 wt %, and the resulting solution was used as a sample solution.
# In 1.5 mL of a 0.2 M acetate buffer solution (pH 4.0), 7400 units of hyaluronidase (from bovine testes; Sigma-Aldrich Co. LLC.) were dissolved, and the resulting solution was used as the enzyme solution.
# In 12.5 mL of a 0.2 M acetate buffer solution (pH 4.0), 10 mg of sodium hyaluronate (from crista galli; Wako Pure Chemical Industries, Ltd.) was dissolved, and the resulting solution was used as the hyaluronic acid solution.
# Using each of the solutions prepared as above, the hyaluronidase inhibitory effect was evaluated in accordance with the following procedures. One-hundred microliters of the sample solution, 50 μL of the enzyme solution, and 200 μL of the hyaluronic acid solution were mixed and reacted at 37° C. for 40 minutes. Then, 100 μL each of a 0.4 M aqueous solution of sodium hydroxide and a 1 M aqueous solution of potassium borate were added to the mixture, and the reaction was stopped. […] The absorbance at 585 nm was subsequently measured. From the measured value of absorbance, the hyaluronidase inhibition ratio was determined in accordance with the equation shown below. […]
# [2] = tested on: human skin model (EpiDerm EPI-200; MatTek); assay: Skin cell activation effect, MTT survival rate in three-dimensional human skin model; type: cell-based; settings: 100 μL, 72 hours, water control = 100%
# Procedure: Using a three-dimensional human skin model, the skin cell activation effect of resveratrol 3-O-α-glucoside was investigated.
# Resveratrol 3-O-α-glucoside was prepared into an aqueous solution having a concentration of 0.02, 0.05, 0.07, or 0.1 wt %, and the resulting solution was used as a sample solution. One-hundred microliters of the sample solution were administered to the horny layer side of the human skin model (EpiDerm EPI-200; MatTek), and cultured in 5 mL of a special medium (EPI-100-ASY) at 37° C. for 72 hours. After the culture, the survival rate of cells in the skin model was measured using the MTT (Thiazolyl Blue Tetrazolium Bromide) method based on the manual, and a relative ratio of the survival rate (cell growth improvement rate; %) after the administration of each of the sample solutions was calculated, taking as 100% the survival rate of a control group to which water not containing resveratrol 3-O-α-glucoside was administered.
# IL-1β gene = assay: Reduction of inflammation through pretreatment: IL-1β gene expression, Poly I:C; type: cell-based; settings: normal human epidermal keratinocytes, pretreatment 0.001 wt % 24 hours, then Poly I:C 1 μg/mL 9 hours; control = 100%, comparative group 871
# Procedure: Normal human epidermal keratinocytes were seeded into 12-well culture plates at 5×10^4 cells per well. As the medium, EpiLife KG-2 medium (basal medium) supplemented with insulin, hEGF, hydrocortisone, anti-microbial agents, and BPE was used, and the cells were preincubated in 5% CO2 at 37° C. for 48 hours. Further, the cells were incubated for additional 24 hours in a medium obtained by removing hydrocortisone only from the basal medium (assay medium). Next, the medium was replaced with a sample medium obtained by supplementing the assay medium with resveratrol 3-O-α-glucoside to a concentration of 0.001 wt %, the cells were cultured in 5% CO2 at 37° C. for 24 hours, and the cultured cells were pretreated with resveratrol 3-O-α-glucoside. […] After the medium was removed and the cells were washed with PBS, total RNA was extracted from the cells, and the level of expression of the proinflammatory cytokine IL-1β gene was quantified by real time PCR. […]
# Taking as 100% the level of expression of the IL-1β gene for the control group, a relative ratio of the expression level of the IL-1β gene for each of the comparative group and the resveratrol 3-O-α-glucoside-supplemented group (IL-1β gene expression ratio, %) was calculated. […]
# [3] = tested on: matrix metalloproteinase 1 (MMP1) gene; assay: MMP1 gene expression in normal human dermal fibroblasts; type: cell-based; settings: 0.001 wt %, 24 hours, control = 100%
# Procedure: (§1) Using normal human dermal fibroblasts, the effect of resveratrol 3-O-α-glucoside on matrix metalloproteinase 1 (MMP1) and 9 (MMP9) genes in the dermis was investigated.
# (§2) Normal human dermal fibroblasts were seeded into 12-well culture plates at 9×10^4 cells per well. As the medium, 10 vol % FBS (Fetal Bovine Serum)-containing DMEM medium (basal medium) was used, and the cells were preincubated in 5% CO2 at 37° C. for 24 hours. The medium was removed and then replaced with a basal medium supplemented with 0.001 wt % of resveratrol 3-O-α-glucoside, and the cells were cultured in 5% CO2 at 37° C. After 24 hours, total RNA was extracted from the cells, and the levels of expression of the MMP1 and MMP9 genes were quantified by real time PCR. As a control group, cells were cultured without resveratrol 3-O-α-glucoside, and total RNA collected from these cells was used.
# (§3) Taking as 100% the level of expression of each of the MMP1 and MMP9 genes for the control group, a relative ratio of the expression level of each of the MMP1 and MMP9 genes for the resveratrol 3-O-α-glucoside-supplemented group (MMP1 and MMP9 gene expression ratios, %) was determined. In the measurement of the expression level of each of the MMP1 and MMP9 genes, GAPDH (glyceraldehyde 3-phosphate dehydrogenase) was used for internal standard correction.
# [4] = tested on: matrix metalloproteinase 9 (MMP9) gene; assay: MMP9 gene expression in normal human dermal fibroblasts; type: cell-based; settings: 0.001 wt %, 24 hours, control = 100%
# Procedure: as §1, §2, §3
# tyrosinase = settings: Non-Patent Literatures 1 and 2; cited from earlier work
SMILES,Hyaluronidase Inhibition Ratio (%) ([1]; 0.025 wt % in the sample solution),Hyaluronidase Inhibition Ratio (%) ([1]; 0.1 wt % in the sample solution),Cell Growth Improvement Rate (%) ([2]; 0.02 wt % aqueous solution),Cell Growth Improvement Rate (%) ([2]; 0.05 wt % aqueous solution),Cell Growth Improvement Rate (%) ([2]; 0.07 wt % aqueous solution),Cell Growth Improvement Rate (%) ([2]; 0.1 wt % aqueous solution),IL-1β Gene Expression Ratio (%) (IL-1β gene),MMP1 Gene Expression Ratio (%) [3] [%],MMP9 Gene Expression Ratio (%) [4] [%],tyrosinase inhibitory effect compared to resveratrol (tyrosinase)
"OC[C@H]1O[C@H](Oc2cc(O)cc(C=Cc3ccc(O)cc3)c2)[C@H](O)[C@@H](O)[C@@H]1O [Resveratrol 3-O-α-Glucoside, resveratrol 3-O-α-glucoside]",7.6,20.6,106,115,116,117,697,85,45,–
"OC[C@H]1O[C@@H](Oc2cc(O)cc(/C=C/c3ccc(O)cc3)c2)[C@H](O)[C@@H](O)[C@@H]1O [Resveratrol 3-O-β-Glucoside, resveratrol 3-O-β-glucoside]",–,–,–,–,–,–,–,–,–,inferior
